Data as given in patent US20020137929A1, “1 - (3-heterocyclylphenyl) isothiourea, -isourea, -guanidine and -amidine herbicidal agents” (Intellectual Property Department, BASF Aktiengesellschaft, priority 1998, published 2002).

Assays:
GALAP (Galium) [1] = experiment: Preemergence herbicidal evaluation; format: in vivo, Galium aparine; conditions: rated 4-5 weeks after treatment; for GALAP rating: preemergence, 0-9 scale
In short: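 Greenhouse preemergence test: seed-soil mix sown on ~1 inch soil; aqueous acetone spray at equivalent of ~0.0156–0.500 kg/ha; greenhouse-held and watered; scored 0–9 visually at 4–5 weeks.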

ORYSAT (Rice, Tebonnet) [2] = experiment: Rice tolerance to post-transplant applications, flooded paddy conditions (Table IV); format: in vivo, Oryza sativa, (L.) Tebonnet
Excerpt: Results of herbicide evaluation are expressed on a rating scale (0-9). The scale is based upon a visual observation of plant stand, vigor, malformation, size, chlorosis and overall plant appearance as compared with a control.
Plastic containers containing weeds which are 3 to 5 cm tall and rice seedlings at the 1.5 to 2.5 leaf stage are flooded with water. The water is maintained at 1.5 to 3 cm above the soil surface for the duration of the experiment. Test compounds are applied as aqueous/ acetone mixtures 50/50 v/v directly into the flood water to provide the equivalent of about 0.0313 to 0.500 kg/ha of active ingredient. The treated containers are placed on greenhouse benches and cared for in accordance with conventional greenhouse procedures. Three to four weeks after treatment, the test is terminated and each container is examined and herbicidal effect rated according to the rating system provided in Example 37. The compounds evaluated are reported by compound number given in Example 37.

ORYSAT (Rice, Tebonnet) [3] = experiment: Rice tolerance to post-transplant applications, flooded paddy conditions (Table III); format: in vivo, Oryza sativa, (L.) Tebonnet
In short: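 Two ten-day-old Tebonnet seedlings transplanted into flooded silt loam (water 1.5 to 3 cm above soil); three days later the water surface was treated with compound in aqueous/acetone 50/50 at about 0.0313 to 0.500 kg/ha. Visual 0-9 injury rating versus control after three to four weeks in greenhouse.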

MOOVA (Monochoria) = experiment: Postemergence weed control under flooded paddy conditions; format: in vivo, Monochoria vaginalis; conditions: postemergence weeds, rated 3 to 4 weeks after treatment
In short: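 Containers holding 3–5 cm weeds and rice at 1.5–2.5 leaves are flooded to 1.5–3 cm above soil. Compound in 50/50 v/v aqueous/acetone is then added directly to the water, about 0.0313–0.500 kg/ha. Plants are kept in the greenhouse and rated 0–9 visually at 3–4 weeks.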

GALAP (Galium) [4] = experiment: Postemergence herbicidal evaluation; format: in vivo, Galium aparine; conditions: for GALAP herbicidal rating: postemergence
In short: (§1)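 Two-week-old seedlings sprayed with compound in 50/50 acetone/water plus 0.5% TWEEN 20, at about 0.0156 to 0.500 kg/ha, nozzle at 40 psi. Kept in greenhouse; rated visually 4-5 weeks after treatment on a 0-9 scale versus control, repeat tests averaged.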

ABUTH (Velvetleaf) = experiment: Postemergence herbicidal evaluation; format: in vivo, Abutilon theophrasti; conditions: for ABUTH herbicidal rating: postemergence
In short: as §1

Cn1c(C(F)(F)F)cc(=O)n(-c2cc(/N=C3/SC(CC(=O)O)C(=O)N3CC(=O)O)c(Cl)cc2F)c1=O (stereo not drawn) [Compound 61, 2-{{2-Chloro-5-[3,6-dihydro-3-methyl-2,6-dioxo-4-(trifluoromethyl)-1(2H)-pyrimidinyl]-4-fluorophenyl}imino}-4-oxo-3,5-thiazolidinediacetic acid]
Preemergence herbicidal rating GALAP (GALAP (Galium) [1]; rate 0.1250 kg/ha): 0.0 | Preemergence herbicidal rating GALAP (GALAP (Galium) [1]; rate 0.2500 kg/ha): 0.0 | Herbicidal rating ORYSAT (rice tolerance) (ORYSAT (Rice, Tebonnet) [2]; in vivo): 0.0 | ORYSAT herbicidal effect rating (rice tolerance) (ORYSAT (Rice, Tebonnet) [3]; in vivo): 0.0 | Herbicidal rating MOOVA (MOOVA (Monochoria); Rate 0.2500 kg/ha): 0.0 | Postemergence herbicidal rating GALAP (GALAP (Galium) [4]; Rate 0.0158 kg/ha): 0.0 | Postemergence herbicidal rating GALAP (GALAP (Galium) [4]; Rate 0.0315 kg/ha): 0.0 | Postemergence herbicidal rating GALAP (GALAP (Galium) [4]; Rate 0.0630 kg/ha): 0.0 | Postemergence herbicidal rating ABUTH (ABUTH (Velvetleaf); Rate 0.0158 kg/ha): 0.0 | Postemergence herbicidal rating ABUTH (ABUTH (Velvetleaf); Rate 0.0315 kg/ha): 0.0 | Postemergence herbicidal rating ABUTH (ABUTH (Velvetleaf); Rate 0.0630 kg/ha): 0.0

CN1C(=O)C(CC(=O)O)SC1=Nc1cc(-n2c(=O)cc(C(F)(F)F)n(C)c2=O)c(F)cc1Cl (stereo not drawn) [Compound 63, 2-{{2-Chloro-5-[3,6-dihydro-3-methyl-2,6-dioxo-4-(trifluoromethyl)-1(2H)-pyrimidinyl]-4-fluoro-phenyl}imino}-3-methyl-4-oxo-5-thiazolidineacetic acid]
Preemergence herbicidal rating GALAP (GALAP (Galium) [1]; rate 0.0156 kg/ha): 0.0 | Preemergence herbicidal rating GALAP (GALAP (Galium) [1]; rate 0.0313 kg/ha): 0.0 | Preemergence herbicidal rating GALAP (GALAP (Galium) [1]; rate 0.0625 kg/ha): 0.0 | Preemergence herbicidal rating GALAP (GALAP (Galium) [1]; rate 0.1250 kg/ha): 9.0 | Preemergence herbicidal rating GALAP (GALAP (Galium) [1]; rate 0.2500 kg/ha): 9.0 | Herbicidal rating ORYSAT (rice tolerance) (ORYSAT (Rice, Tebonnet) [2]; in vivo): 3.0 | ORYSAT herbicidal effect rating (rice tolerance) (ORYSAT (Rice, Tebonnet) [3]; in vivo): 3.0 | Herbicidal rating MOOVA (MOOVA (Monochoria); Rate 0.0313 kg/ha): 9.0 | Herbicidal rating MOOVA (MOOVA (Monochoria); Rate 0.0625 kg/ha): 9.0 | Herbicidal rating MOOVA (MOOVA (Monochoria); Rate 0.1250 kg/ha): 9.0 | Herbicidal rating MOOVA (MOOVA (Monochoria); Rate 0.2500 kg/ha): 9.0 | Postemergence herbicidal rating GALAP (GALAP (Galium) [4]; Rate 0.0158 kg/ha): 1.0 | Postemergence herbicidal rating GALAP (GALAP (Galium) [4]; Rate 0.0315 kg/ha): 6.0 | Postemergence herbicidal rating GALAP (GALAP (Galium) [4]; Rate 0.0630 kg/ha): 7.0 | Postemergence herbicidal rating ABUTH (ABUTH (Velvetleaf); Rate 0.0158 kg/ha): 9.0 | Postemergence herbicidal rating ABUTH (ABUTH (Velvetleaf); Rate 0.0315 kg/ha): 6.0 | Postemergence herbicidal rating ABUTH (ABUTH (Velvetleaf); Rate 0.0630 kg/ha): 9.0

C=CCN1C(=O)C(CC(=O)OCCF)SC1=Nc1cc(-n2c(=O)cc(C(F)(F)F)n(C)c2=O)c(F)cc1Cl (stereo not drawn) [Compound 86, 2-Fluoroethyl 3-allyl-2-{{2-chloro-5-[3,6-dihydro-3-methyl-2,6-dioxo-4-(trifluoromethyl)-1(2H)-pyrimidinyl]-4-fluorophenyl}imino}-4-oxo-5-thiazolidineacetate]
GALAP rating (GALAP (Galium) [1]; 0.0156 kg/ha): 0.0 | GALAP rating (GALAP (Galium) [1]; 0.0313 kg/ha): 0.0 | GALAP rating (GALAP (Galium) [1]; 0.0625 kg/ha): 0.0 | GALAP rating (GALAP (Galium) [1]; 0.1250 kg/ha): 0.0 | GALAP rating (GALAP (Galium) [1]; 0.2500 kg/ha): 9.0 | GALAP rating (GALAP (Galium) [1]; 0.5000 kg/ha): 9.0 | Herbicidal rating ORYSAT (rice tolerance) (ORYSAT (Rice, Tebonnet) [2]; Rate 0.0313 kg/ha, flooded paddy, post-transplant rice, rated 3 to 4 weeks after treatment): 3.0 | Herbicidal rating ORYSAT (rice tolerance) (ORYSAT (Rice, Tebonnet) [2]; Rate 0.0625 kg/ha, flooded paddy, post-transplant rice, rated 3 to 4 weeks after treatment): 4.0 | Herbicidal rating ORYSAT (rice tolerance) (ORYSAT (Rice, Tebonnet) [2]; Rate 0.1250 kg/ha, flooded paddy, post-transplant rice, rated 3 to 4 weeks after treatment): 4.0 | Herbicidal rating ORYSAT (rice tolerance) (ORYSAT (Rice, Tebonnet) [2]; Rate 0.2500 kg/ha, flooded paddy, post-transplant rice, rated 3 to 4 weeks after treatment): 5.0 | ORYSAT herbicidal effect rating (rice tolerance) (ORYSAT (Rice, Tebonnet) [3]; 0.0313 kg/ha, post-transplant rice, flooded paddy, rated 3-4 weeks after treatment): 3.0 | ORYSAT herbicidal effect rating (rice tolerance) (ORYSAT (Rice, Tebonnet) [3]; 0.0625 kg/ha, post-transplant rice, flooded paddy, rated 3-4 weeks after treatment): 4.0 | ORYSAT herbicidal effect rating (rice tolerance) (ORYSAT (Rice, Tebonnet) [3]; 0.1250 kg/ha, post-transplant rice, flooded paddy, rated 3-4 weeks after treatment): 4.0 | ORYSAT herbicidal effect rating (rice tolerance) (ORYSAT (Rice, Tebonnet) [3]; 0.2500 kg/ha, post-transplant rice, flooded paddy, rated 3-4 weeks after treatment): 5.0 | Herbicidal rating MOOVA (MOOVA (Monochoria); Rate 0.0313 kg/ha): 9.0 | Herbicidal rating MOOVA (MOOVA (Monochoria); Rate 0.0625 kg/ha): 9.0 | Herbicidal rating MOOVA (MOOVA (Monochoria); Rate 0.1250 kg/ha): 9.0 | Herbicidal rating MOOVA (MOOVA (Monochoria); Rate 0.2500 kg/ha): 9.0 | GALAP herbicidal rating (GALAP (Galium) [4]; rate 0.0156 kg/ha): 2.0 | GALAP herbicidal rating (GALAP (Galium) [4]; rate 0.0313 kg/ha): 5.0 | GALAP herbicidal rating (GALAP (Galium) [4]; rate 0.0625 kg/ha): 9.0 | GALAP herbicidal rating (GALAP (Galium) [4]; rate 0.1250 kg/ha): 9.0 | ABUTH herbicidal rating (ABUTH (Velvetleaf); rate 0.0156 kg/ha): 9.0 | ABUTH herbicidal rating (ABUTH (Velvetleaf); rate 0.0313 kg/ha): 9.0 | ABUTH herbicidal rating (ABUTH (Velvetleaf); rate 0.0625 kg/ha): 9.0 | ABUTH herbicidal rating (ABUTH (Velvetleaf); rate 0.1250 kg/ha): 9.0
